The values below come from article PMC4077001, “Purification and characterization of a novel lipopeptide from Streptomyces amritsarensis sp. nov. active against methicillin-resistant Staphylococcus aureus” (AMB Express, 2014).

For data set [1], the system named is Chinese hamster ovary (CHO) cell line. Put plainly: cells. It is filed as cell-based. The following applies: 48 h; for growth inhibition: SRB, OD 540 nm. How it is done: In vitro cytotoxicity was evaluated using sulforhodamine B dye assay (Skehan et al. [1990]). The Chinese hamster ovary cell line (CHO) was used for the assay. Camptothecin (CPT), an anticancer drug was used as standard. The 96-well tissue culture plate, containing different concentrations of lipopeptide (2.5- 25 μg/ml) and CHO cells, was incubated for 48 h and the cell growth was stopped with trichloroacetic acid (50% TCA, 50 μl). The optical density (OD) was recorded at 540 nm on ELISA reader and percent growth inhibition was calculated.

Data set [2] has as its system Salmonella typhimurium (TA98). Put plainly: Ames test (Salmonella reverse mutation test). It is filed as cell-based. On the procedure:
Mutagenicity of the lipopeptide was evaluated by Ames test (Maron and Ames [1983]). This Salmonella reverse mutation test is based on histidine dependence and mutations in Salmonella typhimurium (TA98/ MTCC 1251, IMTECH, Chandigarh). Concentrations of the lipopeptide used for checking toxicity were 50 and 100 μg 0.1 ml^−1 plate^−1. The overnight grown, 0.1 ml bacterial culture and 0.1 ml of lipopeptide were added to 2.0 ml of top agar. The contents were mixed and poured onto glucose minimal agar plates immediately. The plates were […] incubated at 37°C for 48 h. The experiment was repeated to confirm the results. To determine the spontaneous reversion which is characteristic of the tester strain (TA 98), negative control (0.1 ml bacterial culture + 0.1 ml DMSO plate^−1) was run while 4-Nitro-o-phenylenediamine (20 μg 0.1 ml^−1 plate^−1) was used as a positive control mutagen. The mutagenic potential of the lipopeptide was determined by comparing the number of colonies with control plates where no test compound was added.
(In general: The Ames test detects mutagens through reverse mutation in bacteria.)

For data set [3], the system named is Bacillus subtilis (MTCC 619). Put plainly: Kirby-Bauer disk diffusion susceptibility test. It is filed as cell-based. The conditions noted are these: 10 μg lipopeptide per 6 mm disc, Mueller-Hinton agar, 24-48 h; duplicates, repeated thrice. On the procedure:
(§1) Sensitivity of test organisms to purified lipopeptide was measured in terms of zone of inhibition using Kirby-Bauer disk diffusion susceptibility test (Bauer et al. [1966]). The plates containing Mueller-Hinton agar, yeast malt agar and potato dextrose agar were seeded with test bacteria, yeasts and fungi, respectively. Filter paper discs (6 mm) impregnated with 10 μg of lipopeptide were placed on media plates. The diameter of the resultant zone of inhibition was measured in mm after 24- 48 hours of incubation. Each experiment was performed in duplicates and repeated thrice. Various test organisms used in the study included Bacillus subtilis (MTCC 619), Mycobacterium smegmatis (MTCC 6), Staphylococcus epidermidis (MTCC 435), Escherichia coli (MTCC 1885), Klebsiella pneumoniae sub sp. pneumoniae (MTCC 109), Enterobacter aerogenes (MTCC 111), Salmonella typhi (MTCC 733), multi-drug resistant E. coli, MRSA, VRE, Candida albicans (MTCC 3017), Rhodotorula rubra (MTCC 248), Colletotrichum acutatum (MTCC 1037), Cercospora beticola (GenBank acc. no. KJ461435), Fusarium oxysporum f.sp. dianthi (MTCC 6659), and Alternaria brassicicola (MTCC 2102).
Background: A growth-free zone around the sample is the usual read-out of agar diffusion tests.

Data set [4] has as its system Mycobacterium smegmatis (MTCC 6). As to the kind of experiment: Kirby-Bauer disk diffusion susceptibility test. It is filed as cell-based. The conditions noted are these: 10 μg lipopeptide per 6 mm disc, Mueller-Hinton agar, 24-48 h; duplicates, repeated thrice. How it is done: as §1
Data set [5] has as its system Staphylococcus epidermidis (MTCC 435). Put plainly: Kirby-Bauer disk diffusion susceptibility test. It is filed as cell-based. The conditions noted are these: 10 μg lipopeptide per 6 mm disc, Mueller-Hinton agar, 24-48 h; duplicates, repeated thrice. On the procedure:
as §1

Data set [6] relates to fungi. Put plainly: Kirby-Bauer disk diffusion susceptibility test. It is filed as cell-based. The conditions noted are these: 10 μg per disc. On the procedure: as §1
In data set [7] the test system is tested Gram-negative bacteria. As to the kind of experiment: Kirby-Bauer disk diffusion susceptibility test. It is filed as cell-based. The conditions noted are these: 10 μg per disc. How it is done:
as §1

The subject of data set [8] is MRSA. Put plainly: Kirby-Bauer disk diffusion susceptibility test. The conditions noted are these: clinical isolate; 10 μg lipopeptide per 6 mm disc, Mueller-Hinton agar, 24-48 h; duplicates, repeated thrice. It is filed as cell-based, Staphylococcus aureus. How it is done:
as §1

For data set [9], the system named is Bacillus subtilis (MTCC 619). Put plainly: MIC, microtiter plate dilution assay. It is filed as cell-based. The following applies: 37°C, OD 600 nm at 24 and 48 h, triplicates. How it is done: (§2) The MIC of purified lipopeptide was evaluated by using a microtiter plate dilution assay. Test bacteria were grown to logarithmic phase under optimal conditions (up to 0.3 OD) and the test was performed in triplicates. To each well of the microtiter plate, 200 μl of fresh nutrient medium and 50 μl of bacterial suspension were added. Subsequently, different dilutions (50 μl) of freshly prepared samples were added to each well. The first column of the microtiter plate was left as a blank, containing fresh medium only. The microtiter plates were incubated at 37°C and OD was measured at 600 nm at 24 and 48 h using ELISA microplate reader (Bio-rad, Model 680XR).

The test system of data set [10] is Methicillin Resistant Staphylococcus aureus (MRSA). As to the kind of experiment: MIC, microtiter plate dilution assay. The conditions noted are these: clinical strain, 37°C, OD 600 nm at 24 and 48 h, triplicates. It is filed as cell-based. On the procedure:
as §2

In data set [11] the test system is Mycobacterium smegmatis (MTCC 6). As to the kind of experiment: MIC, microtiter plate dilution assay. It is filed as cell-based. The following applies: 37°C, OD 600 nm at 24 and 48 h, triplicates. How it is done:
as §2

Data set [12] has as its system Staphylococcus epidermidis (MTCC 435). As to the kind of experiment: MIC, microtiter plate dilution assay. It is filed as cell-based. The conditions noted are these: 37°C, OD 600 nm at 24 and 48 h, triplicates. On the procedure: as §2
A short description of data set [13]: Effect of pH on lipopeptide activity. It is filed as physicochemical. The conditions noted are these: for Residual activity (%): residual antimicrobial activity. An excerpt:
(§3) All enzymes were purchased from Sigma Aldrich.

Data set [14] can be described thus: Heat stability assay. The conditions noted are these: for Residual activity (%): residual antimicrobial activity. It is filed as physicochemical.
From the text: as §3

For data set [15], the system named is lipase. The following applies: lipopeptide 1.0 mg/ml + lipase (~9 U/mg) 1.0 mg/ml in 50 mM phosphate buffer pH 7.0, equal volumes (20 μl each), 37°C, 12 h; residual activity by disc diffusion. On the procedure:
(§4) Sensitivity to temperature was determined by incubating the purified lipopeptide at different temperatures viz. 50°C, 60°C, 70°C, 80°C , 90°C, 100°C and 121°C for different durations. To determine the optimum pH for activity, purified compound was incubated over pH range of 3.0–12.0 for 30 min at 37°C. The sensitivity of the lipopeptide (1.0 mg/ml) to enzymes was tested against proteinase K (~30 U/mg), trypsin (~10,000 U/mg) and lipase (~9 U/mg). All enzymes were purchased from Sigma Aldrich. Enzyme solutions were prepared at 1.0 mg/ml in 50 mM phosphate buffer (pH 7.0). Equal volumes of enzyme solution and antimicrobial compound (20 μl each) were mixed and incubated at 37°C for 12 h. The enzyme reaction was terminated by heating reaction mixture at 80°C and residual activity was determined by disc diffusion method.

For data set [16], the target named is T1, trypsin (Bos taurus, UniProt P00760).
T1 sequence (P00760 24-246): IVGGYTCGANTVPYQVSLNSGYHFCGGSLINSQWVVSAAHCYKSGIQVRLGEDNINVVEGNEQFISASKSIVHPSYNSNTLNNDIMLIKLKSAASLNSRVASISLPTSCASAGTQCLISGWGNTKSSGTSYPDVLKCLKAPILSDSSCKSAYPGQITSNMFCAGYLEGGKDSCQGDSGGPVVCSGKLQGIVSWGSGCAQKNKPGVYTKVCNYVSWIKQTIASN
The conditions noted are these: lipopeptide 1.0 mg/ml + trypsin (~10,000 U/mg) 1.0 mg/ml in 50 mM phosphate buffer pH 7.0, equal volumes (20 μl each), 37°C, 12 h; residual activity by disc diffusion. How it is done: as §4

Data set [17] has as its target T2, proteinase K (Parengyodontium album, UniProt P06873).
T2 construct: purchased Sigma Aldrich
Put plainly: Sensitivity to enzymes. It is filed as in vitro ADME. The following applies: lipopeptide 1.0 mg/ml + proteinase K (~30 U/mg) 1.0 mg/ml in 50 mM phosphate buffer pH 7.0, equal volumes (20 μl each), 37°C, 12 h; residual activity by disc diffusion.
From the text: as §3

The nature of data set [18]: Qualitative drop-collapse test. It is filed as physicochemical. The following applies: 2 μl mineral oil, 5 μl lipopeptide (10 μg, dissolved in water), drop shape after 1 min. How it is done:
(§5) Biosurfactant property of lipopeptide was determined using the qualitative drop-collapse test (Youssef et al. [2004]). In this method, mineral oil (2 μl) was added to 96-well microtitre plate. The plate was equilibrated for 1 h at 37°C and 5 μl of the lipopeptide (10 μg, dissolved in water) was added to the surface of the oil and drop shape was observed after 1 min. The surface tension of a lipopeptide (0.2%, w/v) was measured using Du-Nouy-Ring method (Du Noüy and Pierre [1925]).

Data set [19] is described as follows: Surface tension, Du-Nouy-Ring method. The following applies: lipopeptide 0.2% (w/v), lowered from 72. It is filed as physicochemical. On the procedure:
as §5

Data set [20] concerns lipase. The conditions noted are these: ref Guo et al. 2012; cited from earlier work. From the text: (§6) Antimicrobial lipopeptides have been purified from many bacterial genera including several Streptomyces spp. such as S. violaceus var. aspartocinius (aspartocin), S. griseoflavus (tsushimycin), S. viridochromogens (laspartomycin), S. coelicolor (calcium-dependent antibiotic), S. roseosporus (daptomycin), S. fradiae (A54145), S. parvulus var. parvuli (parvuline) and S. canus (amphomycin) (Schneider et al. [2009]). The present study reports the production of another novel lipopeptide from a Streptomyces sp. The primary structure of lipopeptide was determined using a combination of chemical rea ...

Data set [21] concerns the target T1, trypsin. More on the design: purchased Sigma Aldrich. The conditions noted are these: ref Guo et al. 2012; cited from earlier work.
From the text: as §6

≈ marks a conversion by molar mass, not a printed value. Ends that are not written are not given here.

T2 sequence (P06873 106-384): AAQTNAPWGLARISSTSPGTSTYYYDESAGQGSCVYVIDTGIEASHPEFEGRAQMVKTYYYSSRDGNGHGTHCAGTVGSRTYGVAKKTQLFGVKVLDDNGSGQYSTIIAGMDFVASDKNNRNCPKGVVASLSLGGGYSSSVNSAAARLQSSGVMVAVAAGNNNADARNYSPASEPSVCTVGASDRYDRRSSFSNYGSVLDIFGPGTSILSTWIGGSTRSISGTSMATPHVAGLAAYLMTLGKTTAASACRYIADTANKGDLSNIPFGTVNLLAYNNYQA

A word on the IC50: it is the midpoint of a concentration-inhibition curve. Higher therefore signals weaker potency. In turn, `CC[C@@]1(O)C(=O)OCc2c1cc1n(c2=O)Cc2cc3ccccc3nc2-1` [camptothecin, Camptothecin, reference compound] gave an IC50 in [1] (Cricetulus griseus, CHO cells, SRB assay) of 0.959 µg/mL (≈ 2.75 µM).
For the compound `Nc1ccc([N+](=O)[O-])cc1N` [positive mutagen, 4-Nitro-o-phenylenediamine, reference compound], in data set [2] (positive control, 20 μg plate^-1, compared with negative control), the “number of revertant colonies” value was “considerably higher”.
What is called MIC is the smallest concentration in the dilution series that meets the test's criterion for growth inhibition. Read a high MIC as weaker potency. As to “ATGSHQ [lipopeptide, novel antimicrobial lipopeptide from Streptomyces amritsarensis; Ala-Thr-Gly-Ser-His-Gln, C-terminal amino acid linked to aliphatic chain -(CH2)7-CH2-(CH3)2-]”, the inhibition zone amounted to 21 mm in data set [3], 15 mm in [4], 17 mm in [5] and 13 mm in data set [8]. The antimicrobial activity result in data set [6] and in [7] was “did not show activity” in each case. The MIC was 10 µg/mL in [9], 45 µg/mL in [10], 25 µg/mL in [11] and 15 µg/mL in data set [12]. Further, the “change in activity profile” value in data set [13] (between pH 5.0–9.0) is “did not show any change”. Further, the “Residual activity (%)” value in data set [13] (pH 2, 1 h/4°C) was determined as 0%; in data set [13] (pH 3, 1 h/4°C) it was 72.7%; in [13] (pH 4, 1 h/4°C), 84.6%; in [13] (pH 5, 1 h/4°C) it was 100%; in [13] (pH 6, 1 h/4°C) it was 100%; in data set [13] (pH 7, 1 h/4°C), 100%. The “Residual activity (%)” value worked out at 100% in [13] (pH 8, 1 h/4°C); 100% in [13] (pH 9, 1 h/4°C); 86.3% in data set [13] (pH 10, 1 h/4°C); 68.1% in data set [13] (pH 11, 1 h/4°C); 0% in data set [13] (pH 12, 1 h/4°C); 100% in [14] (50°C, 1 h). Moreover, the “Residual activity (%)” value in data set [14] (60°C, 1 h) was 100%; in data set [14] (70°C, 1 h), 100%; in data set [14] (80°C, 1 h) it was 84.2%; in data set [14] (90°C, 15 min), 95.0%; in data set [14] (100°C, 15 min), 86.3%; in [14] (121°C, 15 min (304 KPa), autoclaving), 81.8%. Moreover, the heat stability entry in data set [14] (70°C for 1 h) is listed as “completely stable”. In data set [14] (100°C, 15 minutes incubation), this compound showed a loss of activity of 13.7%. The “reduction of antimicrobial activity” value in data set [14] (after autoclaving (121°C for 15 min)) is 18.2%. In addition, the stability to lipase result in data set [15] is recorded as “resistant”. The stability to trypsin result in data set [16] was “resistant”. Further, in data set [17], the “stability to proteinase K” value is on record as “negligible loss in activity”. For the same compound, the mutagenicity entry in data set [2] (50 and 100 μg/0.1 ml per plate, 48 hours at 37°C) is on record as “non-mutagenic”. The growth inhibition in data set [1] (2.5 μg/ml) amounted to 2.9%; in data set [1] (6.25 μg/ml), 16.8%; in data set [1] (12.5 μg/ml) it was 19.25%; in [1] (18.75 μg/ml) it was 23.28%; in data set [1] (25 μg/ml) it was 28.9%. Also, the drop-collapse test entry in [18] is reported as “collapsed the oil drop”. Besides, the “surface tension of water” value in [19] was found to be 37 mN m^−1.
As to paenibacterin, the resistance to lipase result in data set [20] is “resistant”. The resistance to trypsin entry in data set [21] is reported as “resistant”.
